PubChem BioAssay AID449762 (Southern Research Specialized Biocontainment Screening …, 2010)
Records with an inconclusive call do not appear.

The compounds below were run on M. tuberculosis H37Rv growth inhibition, 7H9 media (assay: M. tuberculosis growth inhibition, HTS (AID 449762;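 also: bacterial growth assessed after seven days of incubation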)). Details: not given.
`CNC(=S)Nc1ccc(N2CCN(c3ccc(C(F)(F)F)cn3)CC2)nc1` gave an IC50 of 9.93 µM. `c1ccc2c(C3=NNC(=NC4CCCCC4)SC3)c[nH]c2c1` showed an IC50 of 42.7 µM. Work on `Clc1ccc(-c2cc3ccccc3nc2N2CCCC2)cc1` yielded an IC50 of 69.2 µM. `O=c1c(C=Nc2ccc(Oc3ccccc3)cc2)c[nH]n1-c1cccc(Cl)n1` was tested, and the IC50 was 10.6 µM. With `CCn1c2ccccc2c2cc(CN3CCN(Cc4cc(OC)ccc4O)CC3)ccc21` the IC50 was 16.8 µM. `CN(Cc1ccc(Cl)s1)C(=O)CCl` showed an IC50 of 0.66 µM. For `CSc1ccccc1C(=O)NC1CCSc2ccccc21` (stereo unspecified), the IC50 was 9.3 µM. For `Oc1ccccc1N=Cc1ccc[nH]1`, the IC50 was 3.83 µM. With `CCOC(=O)CSCC(=O)N1CCC(Cc2ccccc2)CC1` the IC50 was 5.35 µM. With `O=C(NC(=S)Nc1ccc(N2CCCCC2)c(Cl)c1)c1cccs1` the IC50 was 20.2 µM. In the case of `CCOC(=O)CSc1nnc(-c2c[nH]c3ccccc23)o1`, the IC50 is reported as 0.59 µM. With `COc1cccc(/C=N/Nc2nc(Nc3ccccc3)nc(-n3nc(C)cc3C)n2)c1O` the IC50 was < 0.2 µM. `CC(C)OC(=O)CCCCCN1C(=O)CSC1=S` showed an IC50 of 3.5 µM. Compound `CCC(C)NC(=O)c1c(N)n(/N=C/c2ccccn2)c2nc3ccccc3nc12` (stereo unspecified) has an IC50 of 9.73 µM. `COc1ccc([C@H]2CC(=O)C=C(c3ccc4c5c(cccc35)CC4)C2)cc1` showed an IC50 of 11 µM. `CC1CCCN(Cc2c(O)ccc3c(=O)c(-c4nc5ccccc5s4)c(N)oc23)C1` (stereo unspecified) was tested, and the IC50 was 9.7 µM. With `CC1CCN(C(=O)c2ccc(-c3ccccc3Cl)o2)CC1` the IC50 was 17.9 µM. `Clc1ccc(Nc2ccc(-n3ccnc3)nn2)cc1Cl` gave an IC50 of 18.9 µM. `CCOC(=O)c1cnc(-n2nc(C)cc2C)nc1NNc1cc(C)nc(-c2ccccc2)n1` gave an IC50 of 23.7 µM. `O=C(Nc1ccc2nsnc2c1)NC1CCCCC1` was tested, and the IC50 was 26 µM. `CCOc1ccc(NC(=O)CSc2cn[nH]n2)cc1` gave an IC50 of 57.1 µM. With `O=C(OCC#CCSc1nnc(-c2cccc3ccccc23)o1)c1cccs1` the IC50 was 35.5 µM. `Oc1ccc2ccccc2c1N=Nc1nccs1` was tested, and the IC50 was < 0.2 µM. For `Cc1cc(C)n(C(=O)c2ccc([N+](=O)[O-])cc2[N+](=O)[O-])n1`, the IC50 was 4.57 µM. In the case of `CC(C)(C)c1ccc(C(=O)N2CCN(CCNC(=O)C(=O)NCc3ccc(Cl)cc3)CC2)cc1`, the IC50 is reported as 22.7 µM. With `CCCC1CC(C)(c2csc(Nc3ccc(OCC)cc3)n2)OC1=O` (stereo unspecified) the IC50 was 33.5 µM. Work on `O=C(c1ccccc1)c1ccc(OCCOCCN2CCN(Cc3ccccc3)CC2)cc1` yielded an IC50 of 23.7 µM. With `CCCc1cnc(NCCNCC(O)COc2ccc(Cl)c(Cl)c2)nc1` (stereo unspecified) the IC50 was 17.1 µM. `CCOC(=O)N1CCC(N2Cc3cccc(C(=O)Nc4ccc(N(CC)CC)cc4C)c3C2=O)CC1` was tested, and the IC50 was 45.1 µM. Compound `Cc1ccc(C2CC(c3cccs3)=NN2C(=O)CCl)cc1` (stereo unspecified) has an IC50 of 0.39 µM. Work on `Nc1ccc(-c2nc3ccc(-c4nc5ccccc5o4)cc3[nH]2)cc1` yielded an IC50 of 31.4 µM. `CN1CC=C(/C=C/c2ccc(-c3ccccc3)cc2)CC1` was tested, and the IC50 was 20.1 µM. For `CCOC(=O)c1c(NC(=O)CSc2nc3ccc(OC)cc3[nH]2)sc2c1CC(C)(C)NC2(C)C`, the IC50 was 21.1 µM. In the case of `CC(OC(=O)c1cc(Cl)ccc1[N+](=O)[O-])C(=O)NC(C)c1ccc(F)cc1` (stereo unspecified), the IC50 is reported as 22.8 µM.

Same assay, conditions: measured here: IC90 growth inhibition
With `CNC(=S)Nc1ccc(N2CCN(c3ccc(C(F)(F)F)cn3)CC2)nc1` the IC90 was > 100 µM. `c1ccc2c(C3=NNC(=NC4CCCCC4)SC3)c[nH]c2c1` showed an IC90 of 47.2 µM. `Clc1ccc(-c2cc3ccccc3nc2N2CCCC2)cc1` was tested, and the IC90 was > 100 µM. In the case of `O=c1c(C=Nc2ccc(Oc3ccccc3)cc2)c[nH]n1-c1cccc(Cl)n1`, the IC90 is reported as > 100 µM. In the case of `CCn1c2ccccc2c2cc(CN3CCN(Cc4cc(OC)ccc4O)CC3)ccc21`, the IC90 is reported as 23.5 µM. In the case of `CN(Cc1ccc(Cl)s1)C(=O)CCl`, the IC90 is reported as 0.91 µM. For `CSc1ccccc1C(=O)NC1CCSc2ccccc21` (stereo unspecified), the IC90 was > 100 µM. Compound `Oc1ccccc1N=Cc1ccc[nH]1` has an IC90 of 7.96 µM. With `CCOC(=O)CSCC(=O)N1CCC(Cc2ccccc2)CC1` the IC90 was 19.6 µM. In the case of `O=C(O)c1ccccc1C(=O)NNc1ccc(Cl)cc1Cl`, the IC90 is reported as > 100 µM. `O=C(NC(=S)Nc1ccc(N2CCCCC2)c(Cl)c1)c1cccs1` showed an IC90 of 27.1 µM. With `CCOC(=O)CSc1nnc(-c2c[nH]c3ccccc23)o1` the IC90 was > 100 µM. `COc1cccc(/C=N/Nc2nc(Nc3ccccc3)nc(-n3nc(C)cc3C)n2)c1O` was tested, and the IC90 was < 0.2 µM. With `CC(C)OC(=O)CCCCCN1C(=O)CSC1=S` the IC90 was 8.17 µM. For `CCC(C)NC(=O)c1c(N)n(/N=C/c2ccccn2)c2nc3ccccc3nc12` (stereo unspecified), the IC90 was 14.3 µM. `COc1ccc([C@H]2CC(=O)C=C(c3ccc4c5c(cccc35)CC4)C2)cc1` showed an IC90 of 23 µM. For `COc1ccc(N=N/C(=C\O)C(=O)c2cccs2)cc1`, the IC90 was > 100 µM. For `CC1CCCN(Cc2c(O)ccc3c(=O)c(-c4nc5ccccc5s4)c(N)oc23)C1` (stereo unspecified), the IC90 was 12.7 µM. `CC1CCN(C(=O)c2ccc(-c3ccccc3Cl)o2)CC1` was tested, and the IC90 was 65.8 µM. For `Clc1ccc(Nc2ccc(-n3ccnc3)nn2)cc1Cl`, the IC90 was 25.3 µM. With `CCOC(=O)c1cnc(-n2nc(C)cc2C)nc1NNc1cc(C)nc(-c2ccccc2)n1` the IC90 was 92 µM. `O=C(Nc1ccc2nsnc2c1)NC1CCCCC1` was tested, and the IC90 was > 50 µM. With `CCOc1ccc(NC(=O)CSc2cn[nH]n2)cc1` the IC90 was > 100 µM. With `O=C(OCC#CCSc1nnc(-c2cccc3ccccc23)o1)c1cccs1` the IC90 was 63.9 µM. In the case of `Oc1ccc2ccccc2c1N=Nc1nccs1`, the IC90 is reported as 2.01 µM. `Cc1cc(C)n(C(=O)c2ccc([N+](=O)[O-])cc2[N+](=O)[O-])n1` showed an IC90 of 8.45 µM. Work on `CC(C)(C)c1ccc(C(=O)N2CCN(CCNC(=O)C(=O)NCc3ccc(Cl)cc3)CC2)cc1` yielded an IC90 of 28.3 µM. Compound `CCCC1CC(C)(c2csc(Nc3ccc(OCC)cc3)n2)OC1=O` (stereo unspecified) has an IC90 of 46.5 µM. For `O=C(c1ccccc1)c1ccc(OCCOCCN2CCN(Cc3ccccc3)CC2)cc1`, the IC90 was 37.5 µM. For `CCCc1cnc(NCCNCC(O)COc2ccc(Cl)c(Cl)c2)nc1` (stereo unspecified), the IC90 was 22.1 µM. For `CCOC(=O)N1CCC(N2Cc3cccc(C(=O)Nc4ccc(N(CC)CC)cc4C)c3C2=O)CC1`, the IC90 was 50.5 µM. `Cc1ccc(C2CC(c3cccs3)=NN2C(=O)CCl)cc1` (stereo unspecified) was tested, and the IC90 was 1.39 µM. `Nc1ccc(-c2nc3ccc(-c4nc5ccccc5o4)cc3[nH]2)cc1` gave an IC90 of 41.6 µM. `CN1CC=C(/C=C/c2ccc(-c3ccccc3)cc2)CC1` was tested, and the IC90 was 26.9 µM. In the case of `O=C1c2ccccc2C(=O)N1Nc1ccccc1`, the IC90 is reported as > 100 µM. `CCOC(=O)c1c(NC(=O)CSc2nc3ccc(OC)cc3[nH]2)sc2c1CC(C)(C)NC2(C)C` was tested, and the IC90 was 26.2 µM. In the case of `CC(OC(=O)c1cc(Cl)ccc1[N+](=O)[O-])C(=O)NC(C)c1ccc(F)cc1` (stereo unspecified), the IC90 is reported as 26 µM.
